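Interpolation was linear, between the two tested concentrations surrounding the appropriate level; five concentrations were tested over 48 hours in 96-well plates. TGI: concentration producing complete growth inhibition.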
These molecules were tested on SK-MEL-28 melanoma (assay: inhibition of tumour cell growth, NCI panel, 48 h).

Compound	TGI [µM]
COC(=O)/C(C#N)=C1\N=NNN1c1ccc(OC)cc1	> 100
N#C/C(=C\c1ccc2ccccc2c1)C(=O)c1ccccc1	> 100
O=C1N=C2Sc3ccc4ccccc4c3N2C1=O	56.3

These molecules were tested on SK-MEL-5 melanoma (assay: inhibition of tumour cell growth, NCI panel, 48 h).

Compound	TGI [µM]
O=C(CC1C(=O)Nc2ccccc2S1=O)Nc1cc(Cl)ccc1Cl (stereo not drawn)	> 100
CN(C)C(=S)/N=c1\sn(C)/c(=N\C(=S)N(C)C)n1C	> 100
COC(=O)C1CCCC2(C1)OCCO2 (stereo not drawn)	> 100
COC(=O)/C(C#N)=C1\N=NNN1c1ccc(OC)cc1	> 100
COC(=O)/C(=C/c1ccc(OC)cc1)C(C(=O)O)=C1CCCC1	> 100
N#C/C(=C\c1ccc2ccccc2c1)C(=O)c1ccccc1	> 78.5
O=C1N=C2Sc3ccc4ccccc4c3N2C1=O	58

The molecules below were run on SK-OV-3 ovarian (assay: inhibition of tumour cell growth, NCI panel, 48 h).

Compound	TGI [µM]
CN(C)C(=S)/N=c1\sn(C)/c(=N\C(=S)N(C)C)n1C	> 100
COC(=O)C1CCCC2(C1)OCCO2 (stereo not drawn)	> 100
COC(=O)/C(C#N)=C1\N=NNN1c1ccc(OC)cc1	> 100
COC(=O)/C(=C/c1ccc(OC)cc1)C(C(=O)O)=C1CCCC1	> 100
N#C/C(=C\c1ccc2ccccc2c1)C(=O)c1ccccc1	> 100
O=C1N=C2Sc3ccc4ccccc4c3N2C1=O	31.6

What follows are molecules tested on SN12C renal (assay: inhibition of tumour cell growth, NCI panel, 48 h).

Compound	TGI [µM]
O=C(CC1C(=O)Nc2ccccc2S1=O)Nc1cc(Cl)ccc1Cl (stereo not drawn)	> 100
CN(C)C(=S)/N=c1\sn(C)/c(=N\C(=S)N(C)C)n1C	> 100
COC(=O)C1CCCC2(C1)OCCO2 (stereo not drawn)	> 100
COC(=O)/C(C#N)=C1\N=NNN1c1ccc(OC)cc1	> 100
COC(=O)/C(=C/c1ccc(OC)cc1)C(C(=O)O)=C1CCCC1	> 100
N#C/C(=C\c1ccc2ccccc2c1)C(=O)c1ccccc1	> 87.2
O=C1N=C2Sc3ccc4ccccc4c3N2C1=O	43.8

Each molecule was assayed on SNB-19 CNS (assay: inhibition of tumour cell growth, NCI panel, 48 h).

Compound	TGI [µM]
O=C(CC1C(=O)Nc2ccccc2S1=O)Nc1cc(Cl)ccc1Cl (stereo not drawn)	> 100
CN(C)C(=S)/N=c1\sn(C)/c(=N\C(=S)N(C)C)n1C	> 100
COC(=O)C1CCCC2(C1)OCCO2 (stereo not drawn)	> 100
COC(=O)/C(C#N)=C1\N=NNN1c1ccc(OC)cc1	> 100
COC(=O)/C(=C/c1ccc(OC)cc1)C(C(=O)O)=C1CCCC1	> 100
N#C/C(=C\c1ccc2ccccc2c1)C(=O)c1ccccc1	> 100
O=C1N=C2Sc3ccc4ccccc4c3N2C1=O	45.8

These molecules were tested on SNB-75 CNS (assay: inhibition of tumour cell growth, NCI panel, 48 h).

Compound	TGI [µM]
O=C(CC1C(=O)Nc2ccccc2S1=O)Nc1cc(Cl)ccc1Cl (stereo not drawn)	> 100
CN(C)C(=S)/N=c1\sn(C)/c(=N\C(=S)N(C)C)n1C	> 100
COC(=O)C1CCCC2(C1)OCCO2 (stereo not drawn)	> 100
COC(=O)/C(C#N)=C1\N=NNN1c1ccc(OC)cc1	> 100
COC(=O)/C(=C/c1ccc(OC)cc1)C(C(=O)O)=C1CCCC1	> 100
N#C/C(=C\c1ccc2ccccc2c1)C(=O)c1ccccc1	> 100
O=C1N=C2Sc3ccc4ccccc4c3N2C1=O	40.7

What follows are molecules tested on SNB-78 CNS (assay: inhibition of tumour cell growth, NCI panel, 48 h).

Compound	TGI [µM]
O=C(CC1C(=O)Nc2ccccc2S1=O)Nc1cc(Cl)ccc1Cl (stereo not drawn)	> 100
CN(C)C(=S)/N=c1\sn(C)/c(=N\C(=S)N(C)C)n1C	> 100
COC(=O)C1CCCC2(C1)OCCO2 (stereo not drawn)	> 100
COC(=O)/C(C#N)=C1\N=NNN1c1ccc(OC)cc1	> 100
COC(=O)/C(=C/c1ccc(OC)cc1)C(C(=O)O)=C1CCCC1	> 100
N#C/C(=C\c1ccc2ccccc2c1)C(=O)c1ccccc1	> 100
O=C1N=C2Sc3ccc4ccccc4c3N2C1=O	79.5

The molecules below were run on SR leukemia (assay: inhibition of tumour cell growth, NCI panel, 48 h).

Compound	TGI [µM]
O=C(CC1C(=O)Nc2ccccc2S1=O)Nc1cc(Cl)ccc1Cl (stereo not drawn)	> 100
CN(C)C(=S)/N=c1\sn(C)/c(=N\C(=S)N(C)C)n1C	> 100
COC(=O)C1CCCC2(C1)OCCO2 (stereo not drawn)	> 100
COC(=O)/C(=C/c1ccc(OC)cc1)C(C(=O)O)=C1CCCC1	> 100
N#C/C(=C\c1ccc2ccccc2c1)C(=O)c1ccccc1	> 100
O=C1N=C2Sc3ccc4ccccc4c3N2C1=O	> 100

What follows are molecules tested on SW-620 colon (assay: inhibition of tumour cell growth, NCI panel, 48 h).

Compound	TGI [µM]
O=C(CC1C(=O)Nc2ccccc2S1=O)Nc1cc(Cl)ccc1Cl (stereo not drawn)	> 100
CN(C)C(=S)/N=c1\sn(C)/c(=N\C(=S)N(C)C)n1C	> 100
COC(=O)C1CCCC2(C1)OCCO2 (stereo not drawn)	> 100
COC(=O)/C(C#N)=C1\N=NNN1c1ccc(OC)cc1	> 100
COC(=O)/C(=C/c1ccc(OC)cc1)C(C(=O)O)=C1CCCC1	> 100
N#C/C(=C\c1ccc2ccccc2c1)C(=O)c1ccccc1	> 81.4
O=C1N=C2Sc3ccc4ccccc4c3N2C1=O	49.1

The molecules below were run on T-47D breast (assay: inhibition of tumour cell growth, NCI panel, 48 h).

Compound	TGI [µM]
N#C/C(=C\c1ccc2ccccc2c1)C(=O)c1ccccc1	> 100

These molecules were tested on TK-10 renal (assay: inhibition of tumour cell growth, NCI panel, 48 h).

Compound	TGI [µM]
O=C(CC1C(=O)Nc2ccccc2S1=O)Nc1cc(Cl)ccc1Cl (stereo not drawn)	> 100
CN(C)C(=S)/N=c1\sn(C)/c(=N\C(=S)N(C)C)n1C	> 100
COC(=O)C1CCCC2(C1)OCCO2 (stereo not drawn)	> 100
COC(=O)/C(C#N)=C1\N=NNN1c1ccc(OC)cc1	> 100
COC(=O)/C(=C/c1ccc(OC)cc1)C(C(=O)O)=C1CCCC1	> 100
N#C/C(=C\c1ccc2ccccc2c1)C(=O)c1ccccc1	> 100
O=C1N=C2Sc3ccc4ccccc4c3N2C1=O	81.6

What follows are molecules tested on U251 CNS (assay: inhibition of tumour cell growth, NCI panel, 48 h).

Compound	TGI [µM]
O=C(CC1C(=O)Nc2ccccc2S1=O)Nc1cc(Cl)ccc1Cl (stereo not drawn)	> 100
CN(C)C(=S)/N=c1\sn(C)/c(=N\C(=S)N(C)C)n1C	> 100
COC(=O)C1CCCC2(C1)OCCO2 (stereo not drawn)	> 100
COC(=O)/C(C#N)=C1\N=NNN1c1ccc(OC)cc1	> 100
COC(=O)/C(=C/c1ccc(OC)cc1)C(C(=O)O)=C1CCCC1	> 100
N#C/C(=C\c1ccc2ccccc2c1)C(=O)c1ccccc1	32.9
O=C1N=C2Sc3ccc4ccccc4c3N2C1=O	39.6

The molecules below were run on UACC-257 melanoma (assay: inhibition of tumour cell growth, NCI panel, 48 h).

Compound	TGI [µM]
O=C(CC1C(=O)Nc2ccccc2S1=O)Nc1cc(Cl)ccc1Cl (stereo not drawn)	> 100
CN(C)C(=S)/N=c1\sn(C)/c(=N\C(=S)N(C)C)n1C	> 100
COC(=O)C1CCCC2(C1)OCCO2 (stereo not drawn)	> 100
COC(=O)/C(C#N)=C1\N=NNN1c1ccc(OC)cc1	> 100
COC(=O)/C(=C/c1ccc(OC)cc1)C(C(=O)O)=C1CCCC1	> 100
N#C/C(=C\c1ccc2ccccc2c1)C(=O)c1ccccc1	> 100
O=C1N=C2Sc3ccc4ccccc4c3N2C1=O	96.8

The molecules below were run on UACC-62 melanoma (assay: inhibition of tumour cell growth, NCI panel, 48 h).

Compound	TGI [µM]
O=C(CC1C(=O)Nc2ccccc2S1=O)Nc1cc(Cl)ccc1Cl (stereo not drawn)	> 100
CN(C)C(=S)/N=c1\sn(C)/c(=N\C(=S)N(C)C)n1C	> 100
COC(=O)C1CCCC2(C1)OCCO2 (stereo not drawn)	> 100
COC(=O)/C(C#N)=C1\N=NNN1c1ccc(OC)cc1	> 100
COC(=O)/C(=C/c1ccc(OC)cc1)C(C(=O)O)=C1CCCC1	> 100
N#C/C(=C\c1ccc2ccccc2c1)C(=O)c1ccccc1	> 78.5
O=C1N=C2Sc3ccc4ccccc4c3N2C1=O	> 100

The molecules below were run on UO-31 renal (assay: inhibition of tumour cell growth, NCI panel, 48 h).

Compound	TGI [µM]
O=C(CC1C(=O)Nc2ccccc2S1=O)Nc1cc(Cl)ccc1Cl (stereo not drawn)	> 100
CN(C)C(=S)/N=c1\sn(C)/c(=N\C(=S)N(C)C)n1C	> 100
COC(=O)C1CCCC2(C1)OCCO2 (stereo not drawn)	> 100
COC(=O)/C(C#N)=C1\N=NNN1c1ccc(OC)cc1	> 100
COC(=O)/C(=C/c1ccc(OC)cc1)C(C(=O)O)=C1CCCC1	> 100
N#C/C(=C\c1ccc2ccccc2c1)C(=O)c1ccccc1	> 100
O=C1N=C2Sc3ccc4ccccc4c3N2C1=O	33.3

These molecules were tested on XF 498 CNS (assay: inhibition of tumour cell growth, NCI panel, 48 h).

Compound	TGI [µM]
O=C(CC1C(=O)Nc2ccccc2S1=O)Nc1cc(Cl)ccc1Cl (stereo not drawn)	> 100
CN(C)C(=S)/N=c1\sn(C)/c(=N\C(=S)N(C)C)n1C	> 100
COC(=O)/C(=C/c1ccc(OC)cc1)C(C(=O)O)=C1CCCC1	> 100
N#C/C(=C\c1ccc2ccccc2c1)C(=O)c1ccccc1	> 100
O=C1N=C2Sc3ccc4ccccc4c3N2C1=O	41.3
